Series [1] addresses T1, hERG (KCNH2) (Homo sapiens, UniProt Q12809). The series can be described thus: Inhibition of human ERG overexpressed in CHO cells at 3 uM by Qpatch method relative to control. Particulars: CHO cells overexpressing human ERG. The series is classed as cell-based.
For series [2], the target named is Histone deacetylase 3 (Homo sapiens, UniProt O15379). Briefly: Inhibition of recombinant His6-tagged GST-fused human HDAC3 expressed in baculovirus infected insect High5 cells using Ac-Lys-Tyr-Lys(epsilon-acetyl)-AMC as substrate after 24 hrs.
Histone deacetylase 3, sequence (O15379 whole entry, the tested form may be a part): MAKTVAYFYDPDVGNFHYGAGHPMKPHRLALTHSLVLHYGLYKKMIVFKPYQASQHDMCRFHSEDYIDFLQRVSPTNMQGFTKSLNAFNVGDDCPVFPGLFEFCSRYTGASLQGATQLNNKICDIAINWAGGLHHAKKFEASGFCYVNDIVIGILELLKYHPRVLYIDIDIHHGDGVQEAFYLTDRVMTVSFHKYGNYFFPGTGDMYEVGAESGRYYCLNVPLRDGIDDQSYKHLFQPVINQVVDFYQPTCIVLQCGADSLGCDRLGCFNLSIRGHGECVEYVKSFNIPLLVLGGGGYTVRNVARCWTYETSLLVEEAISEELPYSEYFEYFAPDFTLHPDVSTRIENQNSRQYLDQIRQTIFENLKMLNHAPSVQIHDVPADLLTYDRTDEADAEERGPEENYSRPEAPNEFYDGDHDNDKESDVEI
Series [3] addresses T2, Protein deacetylase HDAC6 (Homo sapiens, UniProt Q9UBN7).
T2 sequence (Q9UBN7 whole entry): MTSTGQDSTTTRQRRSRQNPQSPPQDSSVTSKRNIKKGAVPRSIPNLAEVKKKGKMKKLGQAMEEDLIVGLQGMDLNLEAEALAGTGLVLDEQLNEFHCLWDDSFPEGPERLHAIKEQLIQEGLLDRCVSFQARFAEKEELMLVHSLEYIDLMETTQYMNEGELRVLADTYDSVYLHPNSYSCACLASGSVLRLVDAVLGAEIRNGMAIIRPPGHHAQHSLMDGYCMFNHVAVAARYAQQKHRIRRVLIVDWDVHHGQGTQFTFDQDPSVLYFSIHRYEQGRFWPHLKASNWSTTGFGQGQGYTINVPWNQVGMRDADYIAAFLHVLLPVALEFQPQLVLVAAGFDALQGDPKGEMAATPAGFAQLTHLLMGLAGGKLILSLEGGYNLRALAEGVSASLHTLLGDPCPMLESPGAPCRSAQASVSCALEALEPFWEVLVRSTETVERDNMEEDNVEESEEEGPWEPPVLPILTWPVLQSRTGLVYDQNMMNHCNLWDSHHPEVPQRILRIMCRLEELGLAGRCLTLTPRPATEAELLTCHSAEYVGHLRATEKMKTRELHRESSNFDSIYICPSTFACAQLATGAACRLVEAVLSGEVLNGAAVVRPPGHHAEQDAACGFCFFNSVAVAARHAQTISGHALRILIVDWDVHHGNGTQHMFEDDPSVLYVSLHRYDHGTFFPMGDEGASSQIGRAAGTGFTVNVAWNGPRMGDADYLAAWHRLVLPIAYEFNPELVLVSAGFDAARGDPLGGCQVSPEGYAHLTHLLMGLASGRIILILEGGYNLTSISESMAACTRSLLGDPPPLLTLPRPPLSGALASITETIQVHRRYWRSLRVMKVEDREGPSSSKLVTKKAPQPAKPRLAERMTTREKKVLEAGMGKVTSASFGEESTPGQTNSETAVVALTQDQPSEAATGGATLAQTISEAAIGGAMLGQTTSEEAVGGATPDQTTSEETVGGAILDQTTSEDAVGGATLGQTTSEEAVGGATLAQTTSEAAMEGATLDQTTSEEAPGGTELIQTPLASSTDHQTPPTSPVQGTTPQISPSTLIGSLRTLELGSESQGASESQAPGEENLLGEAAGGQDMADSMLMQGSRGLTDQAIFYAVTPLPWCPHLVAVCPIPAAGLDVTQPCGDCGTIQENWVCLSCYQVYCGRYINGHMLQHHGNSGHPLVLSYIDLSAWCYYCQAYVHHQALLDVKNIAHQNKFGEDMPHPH
The series can be described thus: Inhibition of recombinant His6-tagged GST-fused human HDAC6 expressed in baculovirus infected insect High5 cells using Boc-Lys-(epsilon-acetyl)-AMC as substrate after 3 hrs.

Series [4] addresses Histone deacetylase 1 (Homo sapiens, UniProt Q13547). Briefly: Inhibition of recombinant His6-tagged GST-fused human HDAC1 expressed in baculovirus infected insect High5 cells using Ac-Lys-Tyr-Lys(epsilon-acetyl)-AMC as substrate after 24 hrs.
The test system of series [5] is RPMI-8226. Briefly: Cytotoxicity against human RPMI8226 cells assessed as cell viability after 72 hrs by CCK8 assay. Particulars: RPMI-8226, 72 h. The series is classed as functional, cell-based.
Series [6] concerns HCT-116. Briefly: Cytotoxicity against human HCT116 cells assessed as cell viability after 72 hrs by CCK8 assay. The series is classed as functional, cell-based. As to conditions: HCT-116, 72 h.
The subject of series [7] is HepG2. The series can be described thus: Cytotoxicity against human HepG2 cells assessed as cell viability after 72 hrs by CCK8 assay. The series is classed as functional, cell-based. Particulars: HepG2, 72 h.
The target in series [8] is T1, hERG (KCNH2). Briefly: Inhibition of human ERG overexpressed in CHO cells at 40 uM by Qpatch method relative to control. The series is classed as cell-based. Particulars: CHO cells overexpressing human ERG.
In series [9] the target is Voltage-gated inwardly rectifying potassium channel KCNH2 (Homo sapiens, UniProt Q12809). Briefly: Inhibition of human ERG overexpressed in CHO cells by Qpatch method. Type of series: cell-based.
Voltage-gated inwardly rectifying potassium channel KCNH2, sequence (Q12809 whole entry): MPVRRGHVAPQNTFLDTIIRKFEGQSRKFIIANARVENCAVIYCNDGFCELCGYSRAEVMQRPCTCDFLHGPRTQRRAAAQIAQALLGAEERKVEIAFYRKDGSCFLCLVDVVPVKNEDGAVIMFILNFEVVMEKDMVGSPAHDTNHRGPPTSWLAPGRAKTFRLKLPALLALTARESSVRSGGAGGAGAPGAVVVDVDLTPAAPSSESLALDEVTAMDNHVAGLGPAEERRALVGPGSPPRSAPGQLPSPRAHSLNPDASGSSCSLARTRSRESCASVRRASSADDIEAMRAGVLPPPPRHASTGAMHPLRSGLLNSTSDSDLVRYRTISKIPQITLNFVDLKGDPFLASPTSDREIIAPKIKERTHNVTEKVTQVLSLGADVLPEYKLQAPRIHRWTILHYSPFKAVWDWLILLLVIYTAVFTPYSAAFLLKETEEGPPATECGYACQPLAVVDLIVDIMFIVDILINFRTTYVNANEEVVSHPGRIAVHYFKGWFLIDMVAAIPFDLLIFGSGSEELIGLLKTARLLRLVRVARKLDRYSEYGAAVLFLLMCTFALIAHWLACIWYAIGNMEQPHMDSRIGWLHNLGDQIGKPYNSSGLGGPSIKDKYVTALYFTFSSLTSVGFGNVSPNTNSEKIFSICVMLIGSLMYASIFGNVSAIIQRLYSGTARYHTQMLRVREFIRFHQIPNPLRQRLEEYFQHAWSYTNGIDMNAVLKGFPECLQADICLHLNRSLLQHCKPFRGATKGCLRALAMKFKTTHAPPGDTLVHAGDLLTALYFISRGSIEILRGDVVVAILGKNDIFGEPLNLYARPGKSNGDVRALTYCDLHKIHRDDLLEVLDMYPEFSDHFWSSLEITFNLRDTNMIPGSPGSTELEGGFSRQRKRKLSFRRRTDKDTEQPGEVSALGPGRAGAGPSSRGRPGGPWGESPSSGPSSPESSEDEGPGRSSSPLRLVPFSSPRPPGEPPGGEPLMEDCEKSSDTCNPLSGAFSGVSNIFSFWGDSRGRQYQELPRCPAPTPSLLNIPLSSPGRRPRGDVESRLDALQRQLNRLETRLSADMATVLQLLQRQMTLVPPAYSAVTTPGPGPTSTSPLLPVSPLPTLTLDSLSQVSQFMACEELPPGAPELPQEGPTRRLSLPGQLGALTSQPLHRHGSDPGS
Series [10] concerns the target T3, Histone deacetylase (Homo sapiens) (UniProt Q13547+O15379+Q9UBN7+Q92769+Q9UQL6+Q8WUI4+Q9BY41+Q96DB2+P56524+Q9UKV0+Q969S8). The series can be described thus: Inhibition of HDAC in human RPMI8226 cells assessed as upregulation of acetylated histone H3 level after 24 hrs by Western blot analysis. Type of series: cell-based. Particulars: RPMI-8226.
Series [11] has as its target T3, Histone deacetylase (Homo sapiens). The series can be described thus: Inhibition of HDAC in human RPMI8226 cells assessed as upregulation of acetylated alpha-tubulin level after 24 hrs by Western blot analysis. Type of series: cell-based. Particulars: RPMI-8226.

Some results are limits rather than exact numbers.

T1 sequence (Q12809 whole entry, the tested form may be a part): as the sequence (Q12809 whole entry) above
Histone deacetylase 1, sequence (Q13547 whole entry, the tested form may be a part): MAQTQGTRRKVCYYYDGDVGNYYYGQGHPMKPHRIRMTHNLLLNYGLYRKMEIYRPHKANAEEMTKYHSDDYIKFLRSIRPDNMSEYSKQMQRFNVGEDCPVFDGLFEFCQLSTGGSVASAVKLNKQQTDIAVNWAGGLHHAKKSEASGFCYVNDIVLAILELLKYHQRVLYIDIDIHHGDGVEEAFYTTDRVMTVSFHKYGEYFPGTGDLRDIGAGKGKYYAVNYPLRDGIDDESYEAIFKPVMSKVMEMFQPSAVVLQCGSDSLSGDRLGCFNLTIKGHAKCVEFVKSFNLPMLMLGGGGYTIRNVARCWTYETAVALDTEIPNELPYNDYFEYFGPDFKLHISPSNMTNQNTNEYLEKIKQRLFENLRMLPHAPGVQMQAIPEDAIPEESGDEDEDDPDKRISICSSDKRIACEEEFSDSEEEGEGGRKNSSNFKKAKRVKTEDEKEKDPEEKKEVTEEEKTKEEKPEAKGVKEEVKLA

`COc1cc(N)c(Cl)cc1C(=O)NC1CCN(CCCOc2ccc(F)cc2)CC1OC` (stereo not drawn) [CISAPRIDE] showed an inhibition at 3 µM in series [1] of 98.7%.
For the compound `Cc1ccc(Nc2nccc3ccc(NCc4ccc(/C=C/C(=O)NO)cc4)cc23)c(Br)c1`, the IC50 stood at 633 nM in series [2], 304 nM in series [3], 439 nM in [4] and 5220 nM in series [5].
As to `CCCCn1ccc2ccc(NC(=O)CCCCCCC(=O)NO)cc2c1=O`, the IC50 in series [2] worked out at 92 nM; in [3], 32.1 nM; in series [6], 1720 nM; in [4], 65.8 nM; in series [5], 1880 nM; in series [7], 18500 nM.
`Cc1ccc(Nc2nccc3ccc(NC(=O)CCCCCCC(=O)NO)cc23)c(F)c1`: the IC50 was 39.7 nM in series [2], 40.9 nM in [3], 35.4 nM in series [4] and 2040 nM in series [5].
On to `Cc1ccc(Nc2nccc3ccc(NC(=O)CCCCCCC(=O)NO)cc23)c(Br)c1`, for which the IC50 turned out to be 17.6 nM in series [2]; 6.26 nM in [3]; 260 nM in series [6]; 15.4 nM in [4]; 470 nM in series [5]; 8450 nM in series [7].
As for `Cc1ccc(Nc2nccc3ccc(NC(=O)CCCCCCC(=O)NO)cc23)cc1`, the IC50 in [2] amounted to 4 nM; in [3], 3.77 nM; in series [4], 4.17 nM; in series [5], 770 nM.
Turning to `O=C(CCCCCCC(=O)Nc1ccc2ccnc(Nc3ccc4ccccc4c3)c2c1)NO`, testing at 40 µM in series [8] gave an inhibition of 17.5%. Besides, the IC50 in [9] is > 40000 nM; in [2], 5.42 nM; in series [3], 5.15 nM; in [4] it was 5.75 nM; in series [5], 740 nM.
`COCCN(CCOC)c1nccc2ccc(NC(=O)CCCCCCC(=O)NO)cc12`: the IC50 in series [2] is 192 nM; in series [3], 148 nM; in series [4] it was 263 nM; in [5], 7710 nM.
In the case of `O=C(CCCCCCC(=O)Nc1ccc2ccnc(Nc3ccc(Br)cc3F)c2c1)NO`, 40 µM produced 43.7% inhibition in series [8]. Moreover, the inhibition entry in series [10] and in [11] was “Dose-dependent effect” in each case. Besides, the IC50 was > 40000 nM in series [9]; 16.7 nM in series [2]; 6.83 nM in series [3]; 190 nM in series [6]; 15.5 nM in series [4]; 460 nM in series [5]. The IC50 in series [7] turned out to be 5870 nM.
As for `O=C(CCCCCCC(=O)Nc1ccc2ccnc(Nc3cccc(Cl)c3F)c2c1)NO`, the inhibition entry in series [10] and in series [11] was “Dose-dependent effect” throughout. Further, the IC50 in series [2] came out at 21.6 nM; in series [3] it was 7.96 nM; in series [4], 17.5 nM; in [5] it was 720 nM.
Regarding `O=C(CCCCCCC(=O)Nc1ccc2ccnc(N3CCOCC3)c2c1)NO`, the IC50 in series [2] turned out to be 40.8 nM; in series [3] it was 29.5 nM; in series [6], 280 nM; in series [4], 45.9 nM; in [5], 1330 nM; in series [7] it was 14000 nM.
Turning to `Cc1ccc(Nc2nccc3ccc(NC(=O)CCCCCCC(=O)NO)cc23)c(Cl)c1`, the IC50 in series [2] is 21.2 nM; in series [3], 29.9 nM; in [6] it was 170 nM; in [4], 19.5 nM; in series [5] it was 520 nM; in [7], 10000 nM.
With `Cc1ccc(Nc2nccc3ccc(NCc4ccc(/C=C/C(=O)NO)cc4)cc23)c(Cl)c1`, the IC50 amounted to 475 nM in series [2], 286 nM in [3], 571 nM in series [4] and 2710 nM in [5].
Take `COc1ccc(Cn2ccc3ccc(NC(=O)CCCCCCC(=O)NO)cc3c2=O)c(OC)c1`: the IC50 worked out at 108 nM in series [2], 100 nM in series [3], 98.1 nM in series [4] and 2640 nM in [5].
For `Cc1ccc(Nc2nccc3ccc(NCc4ccc(/C=C/C(=O)NO)cc4)cc23)cc1`, in that order: 176 nM, 58.9 nM, 205 nM and 2040 nM.
Regarding `CC(C)N1CCN(c2nccc3ccc(NC(=O)CCCCCCC(=O)NO)cc23)CC1`, the IC50 was 36 nM in [2], 25 nM in series [3], 41.6 nM in series [4] and 1350 nM in series [5].
Taken in the same sequence, the figures for `CC(C)CCn1ccc2ccc(NC(=O)CCCCCCC(=O)NO)cc2c1=O` were 69.2 nM, 54.2 nM, 66 nM and 1800 nM.
On to `COCCCNc1nccc2ccc(NC(=O)CCCCCCC(=O)NO)cc12`, for which the IC50 in series [2] is 14 nM; in series [3], 13.6 nM; in series [4], 27.9 nM; in series [5], 2710 nM.
With `O=C(COc1ccc(C(=O)NO)cc1)Nc1ccc2ccnc(Nc3ccc4ccccc4c3)c2c1`, the IC50 in series [2] was determined as 276 nM; in series [3] it was 545 nM; in [4], 272 nM; in series [5], 7300 nM.
`CCN(CC)CCn1ccc2ccc(NC(=O)CCCCCCC(=O)NO)cc2c1=O`: the IC50 was found to be 74.4 nM in series [2], 38.7 nM in series [3], 69 nM in series [4] and 2160 nM in [5].
Taken in the same sequence, the figures for `O=C(CCCCCCC(=O)Nc1ccc2ccnc(Nc3ccccc3F)c2c1)NO` were 18.9 nM, 11 nM, 18 nM and 940 nM.
For `Cc1ccc(Nc2nccc3ccc(NCc4ccc(C(=O)NO)cc4)cc23)cc1`, in that order: 264 nM, 352 nM, 323 nM and > 20000 nM.

For the origin of these results see ChEMBL document CHEMBL3600352, “Design, synthesis and biological evaluation of isoquinoline-based derivatives as novel histone deacetylase inhibitors” (Bioorg Med Chem, 2015).
